Results reported in publication PMC9421654, “Discovery of Substituted Di(pyridin-2-yl)-1,2,4-thiadiazol-5-amines as Novel Macrofilaricidal Compounds for the Treatment of Human Filarial Infections” (Journal of Medicinal Chemistry, 2022).
“And” between values parts separate entries of the source, which are not always exact repeats. Equal values may be shown once. Read-outs that look alike come from different tables or passages of the source. Marks after values point to notes of the source that are not given here.

How the values were obtained:
[1] = LogD measurement (octanol-water); type: physicochemical
Summary of the method: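 Human and rat liver microsomes (0.3 mg/mL) with 1 mM NADPH and 3µM substrate, 30 minutes at 37 °C in pH 7.4 phosphate/MgCl2, triplicate; LC-MS/MS percentage remaining. LogD: octanol/aqueous buffer (pH 7.4, 2.2, 6.8, 5), 24 h shaking at room temperature. Kinetic solubility: 200 µM, 2% DMSO, 24 h, filtered.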

[2] = Mouse pharmacokinetics; type: in vivo; details: for Vd: in vivo, read-out: Vdss; for Vd / Cl: IV 2 mg/kg; for bioavailability: PO 10 mg/kg vs IV 2 mg/kg
From the text: All animal experiments were approved by the Institutional Animal Care and Use Committee (IACUC) of Bristol Myers Squibb.

[3] = system: O. volvulus L5 larvae; assay: O. volvulus L5 ex vivo assay, motility; type: cell-based; details: Onchocerca volvulus, 504 h, read-out: O. volvulus L5 % inhibition of motility
Protocol: O. volvulus larvae (L4) were prepared using cryopreserved O. volvulus L3 cultured in a medium containing 1:1 NCTC-109 and IMDM (Iscove’s modified Dulbecco’s medium) supplemented with Glutamax (1×) and 2× Antibiotic-Antimycotic (Life Technologies). This culturing medium was then added in transwell 24-well plates containing human umbilical vein endothelial cell (HUVEC) monolayers, containing the L4 larvae. A week prior to conducting an assay, the cultured O. volvulus larvae (L5) were transferred into a Petri dish containing fresh medium. Aliquots of 8–10 worms were retrieved from the Petri dish and placed inside new transwells over newly seeded HUVEC monolayers in the medium described above. After the transfer of O. volvulus L5 to the plates, the test compounds were dissolved in DMSO, added to each well, and incubated at 37 °C in a 5% CO2. The media containing freshly prepared compounds were partially replaced every 2–3 days for 14 days. After 14 days, the media were completely replaced. The untreated control contains the media described above with a final concentration of 0.05% DMSO. The motility was measured every 2–3 days with the following scale: 100% motility, constant coiling movement; 75% motility, slower coiling; 50% motility, slow and intermittent movement; 25% motility, very slow movement or twitching; and 0% motility, no movement. The motility was measured visually by two operators. On day 28, the viability of O. volvulus L5 was measured by MTT. Following washout and incubation during 1 h in PBS under 5% CO2, worms were observed under an inverted microscope. Worms were considered dead if no staining or less than 50% within the worm was observed. Otherwise, if worms stained blue or more than 50% stained, then they are considered alive. All test treatments were performed in duplicates. Significance was determined using a t test.

[4] = system: O. gutturosa adult male worms; assay: O. gutturosa adult worm ex vivo assay, MTT/formazan viability; type: cell-based, Onchocerca gutturosa; details: supplement, SD in brackets in the PDF table, read-out: O. gutturosa EC50 (uM) MTT viability inhibition
Summary of the method: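 Adult male worms from naturally infected Gambian cattle were kept individually in MEM with 10% newborn calf serum at 37 °C, 5% CO2; four worms per concentration. Motility was scored 0-10 every 24 h to 120 h as a percentage of maximum, with ≥50% reduction versus untreated counted active. Afterwards, MTT (0.5 mg/mL, 30 min) formazan was read at 490 nm.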

[5] = molecular target: T1, hERG potassium channels (KCNH2, expressed in HEK293 cells) (Homo sapiens, UniProt Q12809); assay: hERG inhibition; type: cell-based
T1 construct: expressed in transfected cells

[6] = supplement, read-out: measured logD
[7] = male CD-1 mouse, PO 30 mg/kg suspension
[8] = female BALB/c mouse, PO 30 mg/kg
[9] = male CD-1 mouse, PO 10 mg/kg suspension
[10] = plasma, male CD-1 mouse, PO 10 mg/kg suspension, read-out: Tmax

T1 sequence (Q12809 whole entry): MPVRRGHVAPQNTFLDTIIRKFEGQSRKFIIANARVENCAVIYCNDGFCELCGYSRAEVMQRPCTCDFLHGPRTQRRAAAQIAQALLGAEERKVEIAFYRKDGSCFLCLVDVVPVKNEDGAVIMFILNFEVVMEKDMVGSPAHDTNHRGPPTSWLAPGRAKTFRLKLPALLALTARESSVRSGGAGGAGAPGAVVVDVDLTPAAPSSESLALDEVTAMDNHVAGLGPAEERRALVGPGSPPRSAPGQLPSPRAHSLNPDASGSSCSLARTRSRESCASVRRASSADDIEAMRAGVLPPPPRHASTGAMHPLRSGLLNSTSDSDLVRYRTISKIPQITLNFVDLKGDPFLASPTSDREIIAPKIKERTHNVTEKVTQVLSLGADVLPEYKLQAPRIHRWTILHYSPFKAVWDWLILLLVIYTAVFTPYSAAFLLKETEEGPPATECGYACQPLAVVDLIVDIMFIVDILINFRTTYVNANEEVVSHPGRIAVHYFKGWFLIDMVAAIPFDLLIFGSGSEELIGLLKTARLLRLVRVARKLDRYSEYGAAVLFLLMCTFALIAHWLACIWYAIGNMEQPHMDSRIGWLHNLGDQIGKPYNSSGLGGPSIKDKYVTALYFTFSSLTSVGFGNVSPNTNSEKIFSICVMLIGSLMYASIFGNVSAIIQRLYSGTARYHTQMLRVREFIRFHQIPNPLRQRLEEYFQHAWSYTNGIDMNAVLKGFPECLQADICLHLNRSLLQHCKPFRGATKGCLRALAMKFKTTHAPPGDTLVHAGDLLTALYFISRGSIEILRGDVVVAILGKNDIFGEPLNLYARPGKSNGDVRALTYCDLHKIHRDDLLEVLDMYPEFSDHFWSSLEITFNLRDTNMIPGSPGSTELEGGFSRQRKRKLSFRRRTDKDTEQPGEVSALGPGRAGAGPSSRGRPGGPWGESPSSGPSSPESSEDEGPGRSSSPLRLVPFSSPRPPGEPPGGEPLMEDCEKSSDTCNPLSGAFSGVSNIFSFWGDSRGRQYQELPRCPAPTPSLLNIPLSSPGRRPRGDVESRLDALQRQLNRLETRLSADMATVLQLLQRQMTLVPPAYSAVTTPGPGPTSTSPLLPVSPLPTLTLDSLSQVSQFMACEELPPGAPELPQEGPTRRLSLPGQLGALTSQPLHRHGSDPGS

Compound	logD at 24 h ([1]; pH 7.4, read-out: logD)	logD at 24 h [1, 6]	AUC(0-inf) [2, 7]	Cmax [2, 7] [nM]	Tmax [2, 7]	inhibition at 1 µM [3] [%]	EC50 ([4]; Onchocerca gutturosa) [µM]	IC50 ([5]; supplement) [nM]	EC50 [4] [µM]	also measured
CN(C)c1cccnc1Nc1nc(-c2ccc(OC3CC3)cn2)ns1 [Compound 32]	2.5	2.5	3.85 ± 0.76 µM·h	2340 ± 520	0.5 ± 0.00 h	100	0.56	–	–	–
Cc1cccnc1Nc1nc(-c2ccc(OC3CC3)cn2)ns1 [Compound 11, 3-(5-Cyclopropoxypyridin-2-yl)-N-(3-methylpyridin-2-yl)-1,2,4-thiadiazol-5-amine]	3.4	3.4	–	–	–	100	0.02	> 30000	–	–
CC(C)Oc1ccc(-c2nsc(Nc3ncccc3C(C)C)n2)nc1 [Compound 25, 3-(5-Isopropoxy-2-pyridyl)-N-(3-isopropyl-2-pyridyl)-1,2,4-thiadiazol-5-amine]	2.85	2.85	20.0 ± 9.9 µM·h	2050 ± 270	2.4 ± 3.8 h	–	0.54	–	–	–
Cc1cccnc1Nc1nc(-c2ccc(OC3CCN(C4CC4)CC3)cn2)ns1 [Compound 19, 3-[5-[(1-Cyclopropyl-4-piperidyl)oxy]-2-pyridyl]-N-(3-methyl-2-pyridyl)-1,2,4-thiadiazol-5-amine]	3.3	3.3	6.23 ± 6.16 µM·h	2080 ± 1220	0.5 ± 0.0 h	–	0.19	–	–	IC50 [5]: 3460 nM
CC(C)c1ccnc(-c2nsc(Nc3ncccc3C(F)(F)F)n2)c1 [Compound 27]	2.5	2.5	–	–	–	100	0.07	–	0.069	–
CC(C)Oc1ccc(-c2nsc(Nc3ncccc3N(C)C(=O)C3CC3)n2)nc1 [Compound 50, N-(2-((3-(5-Isopropoxypyridin-2-yl)-1,2,4-thiadiazol-5-yl)amino)pyridin-3-yl)-N-methylcyclopropanecarboxamide]	2.4	2.4	–	–	–	–	2.3	–	–	Kp ([2]; male, CD-1, mouse, brain and plasma, brain to plasma ratio, dose not given, read-out: [b]/[p]): 0.11; inhibition at 1 µM ([3]; Day 21, 1 uM): 100%
CC(C)Oc1ccc(-c2nsc(Nc3ncccc3N(C)C)n2)nc1 [Compound 31, N^2-(3-(5-Isopropoxypyridin-2-yl)-1,2,4-thiadiazol-5-yl)-N3,N3-dimethylpyridine-2,3-diamine]	3.23	3.23	–	–	–	100	0.24	8000	–	Kp at 2 h ([2]; brain and plasma, female BALB/c mouse, PO 30 mg/kg, 2 h, read-out: brain/plasma [b]/[p]): 1.1; AUC(0-inf) [2, 8]: 4.66 ± 0.54 µM·h; Cmax [2, 8]: 5180 nM; Tmax [2, 8]: 0.5 h; Vd ([2]; male CD-1 mouse): 3.01 L/kg; Cl ([2]; male CD-1 mouse): 62.9 mL/min/kg; AUC(0-inf) [2, 9]: 0.94 ^h μM·h; Cmax [2, 9]: 650 nM; Tmax [2, 10]: 0.5 h; bioavailability ([2]; plasma, male CD-1 mouse): 13%
CNc1cccnc1Nc1nc(-c2ccc(OC(C)C)cn2)ns1 [Compound 30]	2.9	2.9	–	–	–	–	0.59	16000	–	–
Cc1ccnc(-c2nsc(Nc3ncccc3C(F)(F)F)n2)c1 [Compound 26, 3-(4-Methylpyridin-2-yl)-N-(3-(trifluoromethyl)pyridin-2-yl)-1,2,4-thiadiazol-5-amine]	2.45	2.45	–	–	–	–	0.07	> 30000	0.069	–
Cc1cccnc1Nc1nc(-c2ccc(OC(C)C)cn2)ns1 [Compound 10, 3-(5-Isopropoxypyridin-2-yl)-N-(3-methylpyridin-2-yl)-1,2,4-thiadiazol-5-amine]	2.88	2.88	26.0 ± 9.0 µM·h	8260 ± 2600	1.0 ± 0.6 h	–	0.01	> 30000	0.013	–
CC(=O)N(C)c1cccnc1Nc1nc(-c2ccc(OC(C)C)cn2)ns1 [Compound 47, N-(2-((3-(5-Isopropoxypyridin-2-yl)-1,2,4-thiadiazol-5-yl)amino)pyridin-3-yl)-N-methylacetamide]	1.62	1.62	121 ^h μM·h	13900	0.50 ^h	–	1.9	–	–	Kp ([2]; brain and plasma, male CD-1 mouse, PO 30 mg/kg, based on AUC0-t, read-out: brain/plasma [b]/[p]): 0.08; Vd ([2]; male CD-1 mouse): 0.74 ± 0.08 L/kg; Cl ([2]; male CD-1 mouse): 3.6 ± 0.22 mL/min/kg; AUC(0-inf) [2, 9]: 68.1NC ^j μM·h; Cmax [2, 9]: 5270 ± 830 nM; Tmax [2, 10]: 4 ± 2.8 h; bioavailability ([2]; plasma, male CD-1 mouse): 57%; inhibition at 1 µM ([3]; Day 21, 1 uM): 100%
CC(C)c1ccnc(-c2nsc(Nc3cc(C(F)(F)F)ccn3)n2)c1 [Compound 35, 3-(4-Isopropylpyridin-2-yl)-N-(4-(trifluoromethyl)pyridin-2-yl)-1,2,4-thiadiazol-5-amine]	3	3	–	210 ± 20	1.8 ± 1.7 h	–	0.15	–	–	AUC(0-inf) ([2]; male CD-1 mouse, PO 30 mg/kg suspension, 30 mg/kg): 1.7 µM·h and 1.73 ± 0.59 µM·h
Cc1cccnc1Nc1nc(-c2ccc(OC3CC4(C3)CN(C3CC3)C4)cn2)ns1 [Compound 12, 3-[5-[(2-Cyclopropyl-2-azaspiro[3.3]heptan-6-yl)oxy]-2-pyridyl]-N-(3-methyl-2-pyridyl)-1,2,4-thiadiazol-5-mine]	2.1	2.1	–	–	–	–	0.03	200	0.033	IC50 [5]: 203 nM
